One data set concerns skin metastases. Nature of the data set: Case 1: vitamin C infusions in a patient with breast carcinoma, local recurrences and skin metastases. It is filed as in vivo, human. Particulars: vitamin C infusions of 7.5 g per infusion.
Data set [1] is described as follows: Combination therapy of cytostatics with vitamin C: loss of cytostatic effect. Conditions: any of the cytostatics investigated. The source says:
The side effects of chemotherapy are also attributed to an increase in the levels of free radicals in many tissues.

For data set [2], the system named is cancer patients. Conditions: intravenous 0.5 to 10 g/day, then oral 10 to 30 g, cited from earlier work.
Data set [3] in a line: Animal experiments: combination with adriamycin, survival time.
A further data set deals with normal cell lines. Conditions: in the concentrations cytotoxic to tumor cell lines; cited from earlier work.
In data set [4] the test system is normal tissue (skin and bone marrow). Nature of the data set: Adjuvant vitamin C infusions with radiation therapy: radiation tolerance of normal tissue. In kind it is in vivo.
A further data set deals with tumor cell lines. Particulars: in certain concentrations; cited from earlier work.
Data set [5] relates to cancer patients. Particulars: high-dose vitamin C therapy, case reports; cited from earlier work.
A further data set relates to terminal cancer patients. Particulars: 100 terminal cancer patients, 10 g vitamin C orally each day; cited from earlier work.
Data set [6] deals with metastatic breast cancer and massive bone metastases. Put plainly: Case 2: vitamin C infusions in a patient with metastatic breast cancer and bone metastases, with concomitant chemotherapy. In kind it is in vivo, human. Particulars: ten infusions of 7.5 g vitamin C each.
Setting [7] is: intravenous infusion of 7.5 g vitamin C before and after each radiation.

`O=C1O[C@H]([C@@H](O)CO)C(O)=C1O` [vitamin C, ascorbic acid]: in the data set on skin metastases, the “comparison with local-acting cytostatic administered previously” value was “superior to the local-acting cytostatic administered previously” and the “effect on skin metastases” value is “remission of the skin metastases”. For the same compound, the “loss of effect of the cytostatics” value in [1] is “no loss of effect”. Also, in the data set on cancer patients [2], the “general well-being and Karnofsky scale” value was “improvement in general well-being and the Karnofsky scale”; the “pain in skeletal metastasis” value is “relief from pain in cases of skeletal metastasis”; the “protein tumor markers in the serum” value is recorded as “decline in protein tumor markers in the serum”. For the same compound, in the data set on cancer patients [2] (in favorable cases), the “malignant pleural effusions and pulmonary metastases” value is “absorption of malignant pleural effusions and a reduction in the size of pulmonary metastases”. Further, in data set [3], the survival time entry is listed as “prolonged survival time”. Further, the “growth of normal cell lines” value with normal cell lines is given as “not influenced”. Moreover, in data set [4] (setting [7]), the “radioprotective effect on bone marrow” value is reported as “greatly improved” and the “skin reactions accompanying radiation” value was “can be prevented”. In [4] (vitamin C infusions, without increasing the radiation dose required to remove the tumors), the “increase of radiation tolerance of normal tissue” value is “about 20%”. The “effect on tumor cell lines” value with tumor cell lines was “cytotoxic effect”. Also, the “general condition and remissions” value in the data set with cancer patients [5] is “improvement in general condition and spontaneous remissions”. Also, the “survival time versus control group” value with terminal cancer patients was “longer than that of the control group”. Also, the “pain caused by the bone metastases” value in [6] is reported as “great relief from the pain”. Besides, the “blood picture (leukocytes and platelets)” value in data set [6] (concomitant chemotherapy) was “definite improvement in the blood picture (stabilization of leukocytes and platelets)”.

Values taken from patent publication US6426076B1 (PASCO Pharmazeutische Präparate GmbH, priority 1997, dated 2002).
